Legend:
[1] = test system: recombinant human NMDA receptors; assay: Antagonist block of agonist-induced currents in oocytes injected with NMDA receptor subunit transcripts (summary of Table 1); format: cell-based; conditions: 0.1-1.0 mM MgCl2 or 1 μM MK801
Protocol: (§1) Xenopus oocytes were injected with in vitro transcripts prepared from constructs containing DNA encoding human NMDA receptor NMDAR1 and NMDAR2 subunits. Electrophysiological measurements of the oocyte transmembrane currents were made using the two-electrode voltage clamp technique (see e.g., Stuhmer (1992) Meth. Enzymol. 207:319-339).
Xenopus oocytes were injected with 12.5-50 ng of one or more NMDA receptor subunit transcripts per oocyte. The preparation and injection of oocytes were carried out as described by Dascal [(1987) Crit. Rev. Biochem. 22:317-387]. Two-to-six days following mRNA injection, the oocytes were examined using the two-electrode voltage clamp technique. The cells were bathed in Ringer's solution (115 mM NaCl, 2.5 mM KCl, 1.8 mM CaCl2, 10 mM HEPES, pH 7.3), and the membrane potential was clamped at −80 to −100 mV. Drugs were applied by pipetting 6.0 μl aliquots of drug-containing solution directly into the bath, or by using gravity-feed into a Warner Instruments chamber (volume=110 μl) at a flow rate of 8 ml/min. The data were sampled at 2-5 Hz with a Labmaster data acquisition board in a PC-386 using AXOTAPE version 1.2 (Axon Instruments, Foster City, Calif.) software. The data were exported to a laser printer or plotted using Sigmaplot version 5.0. […]

[2] = target: NMDA receptors; assay: [3H]-CGP39653 binding to rat buffy coat homogenate; conditions: 150 μg rat buffy coat homogenate; 60 min at 4° C.; read-out: Kd (Scatchard analysis, single class of binding sites)
Protocol: 21:161]. […] The wash step is repeated once more. The final suspension is divided into aliquots, centrifuged.
The binding of [^3H]-CGP39653 to rat brain membranes is carried out as described by Sills et al. [(1991) Eur. J. Pharmacol. 192:19]. The buffy coat membrane pellet is resuspended in 50 volumes of 5 mM Tris-HCl containing 10 mM EDTA, pH 7.7, and incubated for 10 min. at 37° C. The supernatant is centrifuged at 48,000×g for 10 min. at 4° C. The wash step is repeated once and the pellet is resuspended in 10 ml of 5 mM Tris-HCl containing 10 mM EDTA, pH 7.7. […] Unbound radioactivity is removed with two washes of 3 ml each of ice-cold buffer.
Saturation analysis of [^3H]-CGP39653 binding was carried out by incubating 150 μg of rat buffy coat homogenate with increasing concentrations of [^3H]-CGP39653 for 60 min at 4° C.

[3] = target: T1, human NMDAR1A + NMDAR2A (Homo sapiens, UniProt Q05586+Q12879); assay: Two-electrode voltage clamp of Xenopus oocytes co-injected with NMDAR1A and pCMV-hNMDAR2A-3(53) transcripts; format: cell-based
T1 construct: to generate the full-length construct NMDAR1A; Full-length DNAs encoding human NMDA receptor subunits have been inserted into vectors pcDNA1, pMMTVT7(+), pCMV-T7-2 and pCMV-T7-3; expressed in transfected cells; host or cells: Xenopus oocytes co-injected with in vitro transcripts
T1 sequence (Q12879 23-1464, other chains not shown): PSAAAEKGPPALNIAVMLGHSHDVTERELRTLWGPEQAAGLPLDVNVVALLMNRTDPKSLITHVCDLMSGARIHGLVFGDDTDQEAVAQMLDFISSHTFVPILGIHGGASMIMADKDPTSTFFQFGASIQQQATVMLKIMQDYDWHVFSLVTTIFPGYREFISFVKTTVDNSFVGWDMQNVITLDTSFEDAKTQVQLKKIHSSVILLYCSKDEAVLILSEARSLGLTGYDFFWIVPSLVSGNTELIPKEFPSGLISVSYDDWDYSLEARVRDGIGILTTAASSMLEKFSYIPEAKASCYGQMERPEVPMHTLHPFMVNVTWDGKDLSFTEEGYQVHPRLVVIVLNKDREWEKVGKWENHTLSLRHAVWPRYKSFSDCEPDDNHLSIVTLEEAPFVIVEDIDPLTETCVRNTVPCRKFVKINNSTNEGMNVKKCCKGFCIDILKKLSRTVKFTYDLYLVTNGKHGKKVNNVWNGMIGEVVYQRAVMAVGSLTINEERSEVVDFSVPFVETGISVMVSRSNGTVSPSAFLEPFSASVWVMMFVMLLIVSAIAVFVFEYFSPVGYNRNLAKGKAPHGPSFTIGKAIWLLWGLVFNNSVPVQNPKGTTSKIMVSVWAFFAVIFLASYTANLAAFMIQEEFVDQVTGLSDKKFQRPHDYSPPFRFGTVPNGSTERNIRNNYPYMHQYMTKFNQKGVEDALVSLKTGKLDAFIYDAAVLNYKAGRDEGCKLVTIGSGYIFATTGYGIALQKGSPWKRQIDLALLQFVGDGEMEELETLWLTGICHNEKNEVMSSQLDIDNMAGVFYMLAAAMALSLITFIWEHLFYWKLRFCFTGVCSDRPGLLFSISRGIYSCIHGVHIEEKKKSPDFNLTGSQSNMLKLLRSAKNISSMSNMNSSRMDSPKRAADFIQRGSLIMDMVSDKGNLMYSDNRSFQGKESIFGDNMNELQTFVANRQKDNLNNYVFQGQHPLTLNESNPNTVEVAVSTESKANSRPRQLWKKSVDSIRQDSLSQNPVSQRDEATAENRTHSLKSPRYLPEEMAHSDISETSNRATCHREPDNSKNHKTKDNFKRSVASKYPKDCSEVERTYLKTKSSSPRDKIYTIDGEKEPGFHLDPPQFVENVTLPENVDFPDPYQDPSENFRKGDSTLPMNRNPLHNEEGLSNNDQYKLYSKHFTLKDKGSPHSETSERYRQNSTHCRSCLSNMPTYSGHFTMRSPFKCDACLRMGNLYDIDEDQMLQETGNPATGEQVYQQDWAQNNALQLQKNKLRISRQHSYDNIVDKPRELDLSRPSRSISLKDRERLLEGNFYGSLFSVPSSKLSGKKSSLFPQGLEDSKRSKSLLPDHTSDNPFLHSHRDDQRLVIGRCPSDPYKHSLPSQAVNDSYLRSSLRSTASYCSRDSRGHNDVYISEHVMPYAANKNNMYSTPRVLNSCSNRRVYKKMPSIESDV
Protocol: as §1
(§2) Recombinant capped transcripts of NMDA receptor subunit cDNAs contained in constructs NMDAR1A, NMDAR1-I63, NMDAR1-I63-Δ204, NMDAR1-Δ1087, NMDAR1-Δ363, and pCMV-26-NotI-24 were synthesized from linearized plasmids using the mCAP RNA Capping Kit (Cat. #200350, Stratagene, Inc., La Jolla, Calif.). For experiments in which NMDAR2A or NMDAR2B and NMDAR1 or NMDAR1-I63 transcripts were co-injected into Xenopus oocytes, the transcripts were synthesized from linearized constructs NMDAR1A, NMDAR1-I63, pCMV-hNMDAR2A-3(53), pCMV-26-NotI-24 and pBS-hNMDAR2B using mMessage mMachine (Ambion, catalog #1344, Austin, Tex.). The mass of each synthesized transcript was determined by UV absorbance and the integrity of each transcript was determined by electrophoresis through an agarose gel.
(§3) Xenopus oocytes were injected with 12.5-50 ng of one or more NMDA receptor subunit transcripts per oocyte. The preparation and injection of oocytes were carried out as described by Dascal [(1987) Crit. Rev. Biochem. 22:317-387]. […]

[4] = target: T2, human NMDAR1A + NMDAR2A + NMDAR2C (Homo sapiens, UniProt Q05586+Q12879+Q14957); assay: cell-based
T2 construct: other: 50 ng each transcript; co-applied with 100 μM NMDA; mean±S.D. of
Protocol: as §1, §2, §3

Structure (SMILES): C[C@]12N[C@H](Cc3ccccc31)c1ccccc12 [MK801]
- Block of NMDA agonist-induced currents, in general [1]: blocked

Structure (SMILES): [Cl-].[Cl-].[Mg+2] [MgCl2]
- Block of NMDA agonist-induced currents, in general [1]: blocked

Structure (SMILES): CCCC(=CC(N)C(=O)O)CP(=O)(O)O (centres unmarked) [[^3H]-CGP39653]
- Kd [2]: 12.3 ± 0.12 nM

Structure (SMILES): NCC(=O)O [glycine]
- EC50 [3]: 1900 ± 260 nM
- EC50 [4]: 870 ± 240 nM

Source: US6469142B1, “Human N-methyl-D-aspartate receptor subunits, nucleic acids encoding same and uses therefor” (Merck & Co., Inc., priority 1993, dated 2002)
